Data from ChEMBL document CHEMBL1772971, “Novel 18F-labeled benzofuran derivatives with improved properties for positron emission tomography (PET) imaging of β-amyloid plaques in Alzheimer's brains” (J Med Chem, 2011).
pKi: −log10 of the molar value.

What was measured:
[1] = tested on: Blood; experiment: Biodistribution in ddY mouse blood at 185 to 370 kBq, iv after 2 mins by gamma counting; format: ADME, organism-based; settings: in vivo
[2] = tested on: Brain; experiment: Biodistribution in ddY mouse brain at 185 to 370 kBq, iv after 2 mins by gamma counting; format: ADME, organism-based; settings: in vivo
[3] = tested on: Bone; experiment: Biodistribution in ddY mouse bone at 185 to 370 kBq, iv after 2 mins by gamma counting; format: ADME, organism-based, Bone element; settings: in vivo
[4] = tested on: Blood; experiment: Biodistribution in ddY mouse blood at 185 to 370 kBq, iv after 10 mins by gamma counting; format: ADME, organism-based; settings: in vivo
[5] = tested on: Brain; experiment: Biodistribution in ddY mouse brain at 185 to 370 kBq, iv after 10 mins by gamma counting; format: ADME, organism-based; settings: in vivo
[6] = tested on: Bone; experiment: Biodistribution in ddY mouse bone at 185 to 370 kBq, iv after 10 mins by gamma counting; format: ADME, organism-based, Bone element; settings: in vivo
[7] = tested on: Blood; experiment: Biodistribution in ddY mouse blood at 185 to 370 kBq, iv after 30 mins by gamma counting; format: ADME, organism-based; settings: in vivo, 0.5 h
[8] = tested on: Brain; experiment: Biodistribution in ddY mouse brain at 185 to 370 kBq, iv after 30 mins by gamma counting; format: ADME, organism-based; settings: in vivo, 0.5 h
[9] = tested on: Bone; experiment: Biodistribution in ddY mouse bone at 185 to 370 kBq, iv after 30 mins by gamma counting; format: ADME, organism-based, Bone element; settings: in vivo, 0.5 h
[10] = tested on: Blood; experiment: Biodistribution in ddY mouse blood at 185 to 370 kBq, iv after 60 mins by gamma counting; format: ADME, organism-based; settings: in vivo, 1 h
[11] = tested on: Brain; experiment: Biodistribution in ddY mouse brain at 185 to 370 kBq, iv after 60 mins by gamma counting; format: ADME, organism-based; settings: in vivo, 1 h
[12] = tested on: Bone; experiment: Biodistribution in ddY mouse bone at 185 to 370 kBq, iv after 60 mins by gamma counting; format: ADME, organism-based, Bone element; settings: in vivo, 1 h
[13] = tested on: Brain; experiment: Ratio of drug level in brain after 2 mins to brain after 60 mins in ddY mouse […] at 185 to 370 kBq, iv; format: ADME, organism-based; settings: in vivo
[14] = tested on: Brain; experiment: Biodistribution in Tg2576 transgenic mouse brain at 11.1 MBq, iv after 30 mins by autoradiography; format: ADME, organism-based; settings: in vivo, 0.5 h
[15] = tested on: Brain; experiment: Biodistribution in wild type mouse brain at 11.1 MBq, iv after 30 mins by autoradiography; format: ADME, organism-based; settings: in vivo, 0.5 h
[16] = Displacement of [125I]IMPY from amyloid beta (1 to 42) after 3 hrs by gamma counting

Row | SMILES | Drug uptake [1] [% ID/g] | Drug uptake [2] [% ID/g] | Drug uptake [3] [% ID/g] | Drug uptake [4] [% ID/g] | Drug uptake [5] [% ID/g] | Drug uptake [6] [% ID/g] | Drug uptake [7] [% ID/g] | Drug uptake [8] [% ID/g] | Drug uptake [9] [% ID/g] | Drug uptake [10] [% ID/g] | Drug uptake [11] [% ID/g] | Drug uptake [12] [% ID/g] | Ratio [13] | Drug uptake [14] | Drug uptake [15] | pKi [16]
1 | CNc1ccc(-c2cc3cc(OCCOCCOCC[18F])ccc3o2)cc1 | 4.1 | 8.18 | 1.57 | 4.17 | 6.43 | 1.98 | 5.33 | 4.26 | 2.07 | 7.33 | 3.87 | 3.3 | 2.11 | Active | Not Active | 
2 | CNc1ccc(/C=C/c2ccc(OCCOCCOCC[18F])nc2)cc1 [FLORBETAPIR F 18] |  |  |  |  |  |  |  |  |  |  |  |  | 3.8 |  |  | 
3 | CN(C)c1ccc(-c2cc3cc(OCCOCCOCC[18F])ccc3o2)cc1 | 1.64 | 2.88 | 1.19 | 2.48 | 5.66 | 1.76 | 2.68 | 3.14 | 3.63 | 3.41 | 2.8 | 2.74 | 1.02 |  |  | 
4 | CNc1ccc(-c2nc3ccc(O)cc3s2)cc1 [PITTSBURGH COMPOUND B UNLABELLED] |  |  |  |  |  |  |  |  |  |  |  |  |  |  |  | 8.05
5 | CN(C)c1ccc(-c2cc3cc(OCCOCCOCCF)ccc3o2)cn1 |  |  |  |  |  |  |  |  |  |  |  |  |  |  |  | 9.02
